The text below walks through data of patent US4046910A, “Dosage schedule” (The Upjohn Company, priority 1976, dated 1977).

Counter-ions that a name gives are not always drawn.

For assay [1], the system named is allergic manifestations caused by antigen-antibody interaction. The settings on record: tris(hydroxymethyl)aminomethane salts; U.S. Ser. No. 233,772 and 261,524; cited from earlier work.
For assay [2], the system named is rat passive cutaneous anaphylaxis. In words: rat passive cutaneous anaphylaxis (PCA) test. It is filed as in vivo, rat (female Sprague-Dawley). The settings on record: for % Inhibition in Rat PCA: 48 hour sensitization. The source says: The compound under review is first tested in the rat passive cutaneous anaphylaxis test system. This test is employed to determine if the compound does inhibit allergic manifestations. A DSCG biologue will inhibit allergic manifestations. The anti-allergy activity of DSCG biologues vary.
Female Sprague-Dawley 250 gm. rats are skin-sensitized with rat anti-ovalbumin homocytotropic antibody that is heat labile and has a passive cutaneous anaphylaxis titer of (1:128). After a 72-hour latency period, the animals are challenged i.v. with a 4 mg. ovalbumin (OA) + 5 mg. Evans blue dye. Thirty minutes later the extravascular bluing that results from antigen antibody combination at the skin site is read. Antibody dilutions are used such that in control animals a 4 mm spot in the lowest detectable spot, and 4 or 5 lower dilutions are used to give a range of antibody in each animal. Four to five animals are used for each variable in the experiment. Percent inhibition of the PCA assay is calculated by comparing the spot scores of DSCG treated rats with the spot scores of control rats. The spot score is the total number of detectable spots over the number of animals.
DSCG Priming Treatment: Passively sensitized rats are injected i.v. 2.0 hours before antigen challenge i.v. Two hours after an i.v. priming dose of 10 mg./kg. DSCG, the rats are challenged with antigen alone.
The time course of the effective life of DSCG in rats is shown in Table I. DSCG was administered i.p. and was followed by i.v. challenge with 4 mg. ovalbumin and 5 mg. of Evans Blue. Spot score was calculated 30 minutes later from a total of four animals for each time point.
The animals are rested 2 hours between primary i.v. DSCG injection and i.v. antigen challenge, including secondary DSCG dosing. In view of Table I, this time period is of such a length that the effect from the initial dose of DSCG is not a significant factor.
The effect of a time lag between priming doses and secondary doses with regard to the drug sparing effect and the responsiveness of the treated mammal to further treatment with DSCG or a DSCG biologue is shown in Table III. Rats were injected once daily with 10 mg./kg. DSCG for three days. Control rats were also injected with 1.0 ml. of saline at the same time. Twenty and 48 hours after the last dose of DSCG in the three dose series all rats were injected with DSCG. 4 mg. ovalbumin, and 5 mg. of Evans Blue dye.
Th sparing effect using a DSCG biologue, the tris(hydroxymethyl)aminomethane salt of 10-chloro-1,4,6,9-tetrahydro-4,6-dioxopyrido[3,2-g]quinoline-2,8-dicarboxylic acid, referred to as Compound 10 Cl in this Example, is shown in the rat PCA of Table IV. When using this compound in a priming situation, 2.0 mg./kg., 1.0 mg./kg., 0.025 mg./kg. and 0.01 mg./kg. give inhibitions of 93, 86, 44 and 0% respectively. The data of Table IV are obtained in the usual manner except that a 48 hour instead of a 72 hour sensitization period was used.

In the next assay the test system is mediators of anaphylaxis. The conditions noted are these: cited from earlier work.

As to `O=C(O)c1cc(=O)c2cc3c(=O)cc(C(=O)O)[nH]c3c(Cl)c2[nH]1` [Compound 10 Cl, tris(hydroxymethyl)aminomethane salt of 10-chloro-1,4,6,9-tetrahydro-4,6-dioxopyrido[3,2-g]quinoline-2,8-dicarboxylic acid], the “ability to prophylactically protect against allergic manifestations” value (“ability to prophylactically protect” for short) in assay [1] is recorded as “have this ability to prophylactically protect against allergic manifestations”. In addition, the sparing result in assay [2] (0.01 mg./kg. maintenance dose, primed with 2.0 or 1.0 mg./kg.) is on record as “sparing is seen”. Further, the “inhibition in a priming situation” value was 0% in assay [2] (0.01 mg./kg. priming), 44% in assay [2] (0.025 mg./kg. priming), 86% in assay [2] (1.0 mg./kg. priming) and 93% in assay [2] (2.0 mg./kg. priming). The “% Inhibition in Rat PCA” value in assay [2] (priming 0.01 mg./kg., secondary 0.01 mg./kg.) was 6%; in assay [2] (priming 0.01 mg./kg., secondary 0.025 mg./kg.) it was 44%; in assay [2] (priming 0.01 mg./kg., secondary 1.0 mg./kg.), 71%; in assay [2] (priming 0.01 mg./kg., secondary 2.0 mg./kg.) it was 80%; in assay [2] (priming 0.025 mg./kg., secondary 0.01 mg./kg.) it was 6%; in assay [2] (priming 0.025 mg./kg., secondary 0.025 mg./kg.), 23%. Moreover, the “% Inhibition in Rat PCA” value was found to be 52% in assay [2] (priming 0.025 mg./kg., secondary 1.0 mg./kg.); 62% in assay [2] (priming 0.025 mg./kg., secondary 2.0 mg./kg.); 44% in assay [2] (priming 1.0 mg./kg., secondary 0.01 mg./kg.); 44% in assay [2] (priming 1.0 mg./kg., secondary 0.025 mg./kg.); 44% in assay [2] (priming 1.0 mg./kg., secondary 1.0 mg./kg.); 52% in assay [2] (priming 1.0 mg./kg., secondary 2.0 mg./kg.). Moreover, the “% Inhibition in Rat PCA” value in assay [2] (priming 2.0 mg./kg., secondary 0.01 mg./kg.) amounted to 52%; in assay [2] (priming 2.0 mg./kg., secondary 0.025 mg./kg.), 33%; in assay [2] (priming 2.0 mg./kg., secondary 1.0 mg./kg.), 14%; in assay [2] (priming 2.0 mg./kg., secondary 2.0 mg./kg.), 6%.

For the compound `CCCCC[C@H](O)/C=C/[C@H]1[C@H](O)CC(=O)[C@@H]1C/C=C\CCCC(=O)O` [Prostaglandin E2], the “response in the DSCG biologue tests” value with mediators of anaphylaxis is on record as “respond appropriately to some of the tests but not all of them”.

For the compound `Cc1c2[nH]c(C(=O)O)cc(=O)c2cc2c(=O)cc(C(=O)O)[nH]c12` [1,4,6,9-tetrahydro-10-methyl-4,6-dioxopyrido[3,2-g]quinoline-2,8-dicarboxylic acid], the “ability to prophylactically protect” value in assay [1] is “have this ability to prophylactically protect against allergic manifestations”.

As to `CCCCC[C@H](O)/C=C/[C@H]1[C@H](O)CC(=O)[C@@H]1CCCCCCC(=O)O` [Prostaglandin E1], the “response in the DSCG biologue tests” value with mediators of anaphylaxis is “respond appropriately to some of the tests but not all of them”.

Take `O=C(O)c1cc(=O)c2cc(-c3ccc4[nH]c(C(=O)O)cc(=O)c4c3)ccc2[nH]1` [tris(hydroxymethyl)aminomethane salt of 1,1',4,4'-tetrahydro-4,4'-dioxo[6,6'-biquinoline]-2,2'-dicarboxylic acid]: the “ability to prophylactically protect” value in assay [1] was “have this ability to prophylactically protect against allergic manifestations”.
